Marks after values point to notes of the source that are not given here.
Key:
Septoria tritici = test: Test F: wheat leaf blotch, preventive spray on wheat seedlings, visual disease rating; format: in vivo; parameters: Test F rating (disease control), value marked *: concentration or dose not given beside the values; conditions: for Test F rating (disease control) / pest or weed control at 200 µg/mL / Test F rating (% disease control): 100 = 100% disease control; for Test F rating (disease control) / pest or weed control at 200 µg/mL: 0 = no disease control relative to the controls; for pest or weed control at 200 µg/mL: Zymoseptoria tritici; for Test F rating (% disease control): preventive spray, rating without asterisk
Source text: (§1) A hyphen (-) indicates no test results.

Septoria nodorum = test: Test E: Septoria glume blotch, preventive spray on wheat seedlings, visual disease rating; conditions: 100 = 100% disease control; for Test E rating (disease control): Septoria glume blotch; for Test E rating (disease control) / pest or weed control at 200 µg/mL: 0 = no disease control relative to the controls; for pest or weed control at 200 µg/mL: Parastagonospora nodorum, in Triticum aestivum, read-out: Test E rating (disease control), Septoria glume blotch; for Test E rating (% disease control): Septoria glume blotch on wheat, preventive spray, rating without asterisk
Experimental: General protocol for preparing test suspensions for Tests A-I: the test compounds were first dissolved in acetone in an amount equal to 3% of the final volume and then suspended at the desired concentration (in ppm) in acetone and purified water (50/50 mix by volume) containing 250 ppm of the surfactant Trem® 014 (polyhydric alcohol esters). The resulting test suspensions were then used in Tests A-I. Each test was conducted in triplicate, and the results were averaged. Spraying a 200 ppm test suspension to the point of run-off on the test plants was the equivalent of a rate of about 800 g/ha. Unless otherwise indicated, the rating values indicate a 200 ppm test suspension was used. (An asterisk “*” next to the rating value indicates a 40 ppm test suspension was used.)
The test suspension was sprayed to the point of run-off on wheat seedlings. The following day the seedlings were inoculated with a spore suspension of Septoria nodorum (the causal agent of Septoria glume blotch) and incubated in a saturated atmosphere at 24° C. for 48 h, and then moved to a growth chamber at 20° C. for 9 days, after which time visual disease ratings were made.

Alternaria solani = test: Test B: tomato early blight, preventive spray on tomato seedlings, visual disease rating; conditions: for Test B rating (disease control) / Test B rating (% disease control): tomato early blight, 100 = 100% disease control; for Test B rating (disease control): 0 = no disease control relative to the controls; for pest or weed control at 200 µg/mL: Alternaria solani, in Solanum lycopersicum, read-out: Test B rating (disease control); for Test B rating (% disease control): preventive spray, rating without asterisk
[1] = system: Puccinia recondita f. sp. tritici; test: Test H: wheat leaf rust, preventive spray on wheat seedlings, visual disease rating; conditions: 100 = 100% disease control; for Test H rating (disease control) / Test H rating (% disease control): wheat leaf rust; for Test H rating (disease control): sprayed the day before inoculation; for Test H rating (disease control) / pest or weed control at 200 µg/mL: 0 = no disease control; for pest or weed control at 200 µg/mL: read-out: Test H rating (disease control), wheat leaf rust, sprayed the day before inoculation; for Test H rating (% disease control): preventive spray, rating without asterisk
[2] = system: Blumeria graminis f. sp. tritici; test: Test I: wheat powdery mildew, preventive spray on wheat seedlings, visual disease rating; conditions: for Test I rating (disease control) / pest or weed control at 200 µg/mL / Test I rating (% disease control): 100 = 100% disease control; for Test I rating (disease control) / pest or weed control at 200 µg/mL: 0 = no disease control relative to the controls; for pest or weed control at 200 µg/mL: Blumeria graminis, in Triticum aestivum, read-out: Test I rating (disease control), wheat powdery mildew; for Test I rating (% disease control): preventive spray, rating without asterisk
Botrytis cinerea = test: Test A: tomato Botrytis, preventive spray on tomato seedlings, visual disease rating; conditions: 100 = 100% disease control; for Test A rating (disease control) / Test A rating (% disease control): tomato Botrytis; for Test A rating (disease control) / pest or weed control at 200 µg/mL: 0 = no disease control relative to the controls; for pest or weed control at 200 µg/mL: Botrytis cinerea, in Solanum lycopersicum, read-out: Test A rating (disease control), tomato Botrytis; for Test A rating (% disease control): preventive spray, 0 = no control relative to controls, rating without asterisk
[3] = system: Puccinia recondita f. sp. tritici; test: Test G: wheat leaf rust, spray after inoculation (curative) on wheat seedlings, visual disease rating; format: in vivo; conditions: 100 = 100% disease control; for Test G rating (disease control) / pest or weed control at 200 µg/mL: sprayed after inoculation, 0 = no disease control; for Test G rating (% disease control): spray after inoculation, rating without asterisk
Source text: as §1

| Structure (SMILES) | Test F rating (disease control) (Septoria tritici) | Test E rating (disease control) (Septoria nodorum) | Test B rating (disease control) (Alternaria solani) | Test H rating (disease control) [1] | Test I rating (disease control) ([2]; wheat powdery mildew) | Test A rating (disease control) (Botrytis cinerea) | Test G rating (disease control) [3] | Test F rating (% disease control) (Septoria tritici) | Test E rating (% disease control) (Septoria nodorum) | Test B rating (% disease control) (Alternaria solani) | Test H rating (% disease control) [1] | Test I rating (% disease control) ([2]; wheat powdery mildew) | Test A rating (% disease control) (Botrytis cinerea) | Test G rating (% disease control) [3] | other results |
| --- | --- | --- | --- | --- | --- | --- | --- | --- | --- | --- | --- | --- | --- | --- | --- |
| COc1ccc(-c2c(C)nn(C)c2Nc2c(F)cc(F)cc2F)c(Cl)c1 [compound 29] | 99% | 97% | 99% | 99% | 100% | 100% | 99% | – | – | – | – | – | – | – | – |
| Cc1nn(C)c(Oc2ccc(C#N)cc2F)c1-c1c(F)cccc1F [Compound 130, 4-[[4-(2,6-difluorophenyl)-1,3-dimethyl-1H-pyrazol-5-yl]oxy]-3-fluorobenzonitrile] | – | – | – | – | – | – | – | – | – | – | – | – | – | – | pest or weed control at 200 µg/mL (Septoria tritici): 100%; pest or weed control at 200 µg/mL (Septoria nodorum): 0%; pest or weed control at 200 µg/mL (Alternaria solani): 90%; pest or weed control at 200 µg/mL [1]: 100%; pest or weed control at 200 µg/mL [2]: 100%; pest or weed control at 200 µg/mL (Botrytis cinerea): 100%; pest or weed control at 200 µg/mL [3]: 0% |
| Cc1nn(C)c(Nc2ccc(Cl)cc2Cl)c1-c1ccc(F)cc1F [compound 67] | 100% | 0% | 64% | 97% | 100% | 100% | 0% | – | – | – | – | – | – | – | – |
| Cc1nn(C)c(Nc2c(F)cc(Cl)cc2F)c1-c1ccc(Cl)cc1F [compound 230] | – | – | – | – | – | – | – | 100% | 0% | 0% | 94% | 95% | 40% | 0% | – |
| Cc1nn(C)c(Nc2c(F)cc(F)cc2Br)c1-c1ccc(Cl)cc1F [compound 229] | – | – | – | – | – | – | – | 100% | 64% | 99% | 97% | 98% | 99% | 9% | – |
| Cc1nn(C)c(Oc2ccc(C#N)cc2F)c1-c1ccc(F)cc1Br [Compound 79, 4-[[4-(2-bromo-4-fluorophenyl)-1,3-dimethyl-1H-pyrazol-5-yl]oxy]-3-fluorobenzonitrile] | – | – | – | – | – | – | – | – | – | – | – | – | – | – | Test F rating (disease control), value marked * (Septoria tritici; rating marked with asterisk (*), other test condition, not explained in the text shown): 100* %; pest or weed control at 200 µg/mL (Septoria nodorum): 100%; pest or weed control at 200 µg/mL (Alternaria solani): 99%; pest or weed control at 200 µg/mL [1]: 100%; pest or weed control at 200 µg/mL [2]: 100%; pest or weed control at 200 µg/mL (Botrytis cinerea): 99%; pest or weed control at 200 µg/mL [3]: 28% |
| Cc1nn(C)c(Nc2ccc(F)cc2Cl)c1-c1ccc(F)cc1Br [compound 96] | 100% | 0% | 95% | 100% | 100% | 100% | 94% | – | – | – | – | – | – | – | – |
| Cc1nn(C)c(Nc2c(F)cc(F)cc2F)c1-c1ccc(F)cc1Br [Compound 74, 4-(2-bromo-4-fluorophenyl)-1,3-dimethyl-N-(2,4,6-trifluorophenyl)-1H-pyrazol-5-amine] | – | – | – | – | – | – | – | – | – | – | – | – | – | – | pest or weed control at 200 µg/mL (Septoria tritici): 100%; pest or weed control at 200 µg/mL (Septoria nodorum): 98%; pest or weed control at 200 µg/mL (Alternaria solani): 100%; pest or weed control at 200 µg/mL [1]: 100%; pest or weed control at 200 µg/mL [2]: 100%; pest or weed control at 200 µg/mL (Botrytis cinerea): 100%; pest or weed control at 200 µg/mL [3]: 0% |
| CCOc1ccc(-c2c(C)nn(C)c2Nc2c(F)cc(Cl)cc2F)c(Cl)c1 [compound 207] | – | – | – | – | – | – | – | 100% | 86% | 99% | 94% | 99% | 94% | 0% | – |
| Cc1nn(C)c(Nc2ccc(Br)cc2Cl)c1-c1ccc(F)cc1F [compound 167] | 100% | 0% | 0% | 92% | 98% | 100% | 6% | – | – | – | – | – | – | – | – |
| COc1ccc(Nc2c(-c3ccc(F)cc3Cl)c(C)nn2C)c(Cl)c1 [compound 101] | 100% | 0% | 93% | 100% | 100% | 100% | 99% | – | – | – | – | – | – | – | – |
| Cc1nn(C)c(Nc2c(F)cc(F)cc2Cl)c1-c1ccc(F)cc1F [Compound 117, N-(2-chloro-4,6-difluorophenyl)-4-(2,4-difluorophenyl)-1,3-dimethyl-1H-pyrazol-5-amine] | – | – | – | – | – | – | – | – | – | – | – | – | – | – | pest or weed control at 200 µg/mL (Septoria tritici): 100%; pest or weed control at 200 µg/mL (Septoria nodorum): 97%; pest or weed control at 200 µg/mL (Alternaria solani): 100%; pest or weed control at 200 µg/mL [1]: 100%; pest or weed control at 200 µg/mL [2]: 100%; pest or weed control at 200 µg/mL (Botrytis cinerea): 100%; pest or weed control at 200 µg/mL [3]: 91% |
| COc1cc(Cl)c(Nc2c(-c3ccc(F)cc3Cl)c(C)nn2C)c(Cl)c1 [compound 85] | 100% | 0% | 0% | 99% | – | 99% | 0% | – | – | – | – | – | – | – | Test I rating (disease control), value marked * ([2]; wheat powdery mildew, rating marked with asterisk (*), not explained in the text shown): 99* % |
| COc1ccc(-c2c(C)nn(C)c2Nc2c(Cl)cc(F)cc2Cl)c(Cl)c1 [compound 205] | – | – | – | – | – | – | – | 100% | 0% | 31% | 99% | 21% | 59% | 0% | – |
| Cc1nn(C)c(Nc2ccc(Br)cc2F)c1-c1ccc(F)cc1Br [compound 169] | 100% | 60% | 0% | 96% | 99% | 100% | 23% | – | – | – | – | – | – | – | – |
| CCOc1ccc(-c2c(C)nn(C)c2Nc2c(Cl)cc(F)cc2Cl)c(Cl)c1 [compound 208] | – | – | – | – | – | – | – | 99% | 0% | 0% | 85% | 27% | 18% | 0% | – |
| Cc1nn(C)c(Nc2ccc(Cl)cc2Cl)c1-c1c(Cl)cccc1Cl [compound 105] | 100% | 0% | 0% | 96% | 99% | 99% | 0% | – | – | – | – | – | – | – | – |
| COc1ccc(Nc2c(-c3c(F)cccc3F)c(C)nn2C)c(Cl)c1 [compound 60] | 100% | 20% | 97% | 97% | 99% | 99% | 18% | – | – | – | – | – | – | – | – |
| Cc1nn(C)c(Nc2c(F)cc(Cl)cc2Cl)c1-c1ccc(F)cc1I [compound 222] | – | – | – | – | – | – | – | 100% | 0% | 77% | 90% | 96% | 98% | 0% | – |

— US20170150719A1, “FUNGICIDAL PYRAZOLES AND THEIR MIXTURES” (E I DU PONT DE NEMOURS AND COMPANY, priority 2010, published 2017)
